In experiment [1] the test system is M. abscessus subsp. massiliense CCUG 48898T. Description: MIC, anti-mycobacterial profiling. The format is cell-based, Mycobacterium abscessus. As to conditions: for MIC: mean of two experiments. Here is the method:
(§1) MIC determination was carried out in 96-well plate format as previously described.^[13-14] 96-well plates were initially set up with 100 μL of 7H9 per well. For each compound, a ten-point two-fold dilution series starting at twice the desired highest concentration was dispensed onto the 96-well plates using a Tecan D300e Digital Dispenser, with the DMSO concentration normalized to 2%. M. abscessus culture grown to mid-log phase (OD600=0.4-0.6) was diluted to OD600=0.1 (1×10^7 CFU/mL). 100 μL of the resulting bacteria suspension was dispensed onto the 96-well plates containing compounds to give a final volume of 200 μL per well with an initial OD600=0.05 (5×10^6 CFU/mL) and final DMSO concentration of 1%. Final compound concentration ranges were typically 50-0.098 μM, 6.25-0.012 μM, 0.006-3.13 μM, or 0.003-1.56 μM. Untreated control wells are included on each plate that contain bacteria suspension and 1% DMSO. Plates were sealed with parafilm, stored in boxes with wet paper towels and incubated at 37° C. with shaking (110 RPM). Plates were incubated for 3 days. To determine growth, OD600 was measured using a Tecan Infinite M200 plate reader on Day 0 and Day 3. Two biological replicates were performed. Clarithromycin was included in each experiment as a positive control.
(§2) For each well on the 96-well plate, bacterial growth was calculated by subtracting the Day 0 OD600 value from the Day 3 OD600 value. For each compound series, the bacterial growth values for the untreated control wells were averaged to give the average drug-free bacterial growth. For compound-containing wells, percentage growth was calculated by dividing their growth values by the average drug-free bacterial growth for the compound series and multiplying by 100. For each compound series, we plotted percentage growth versus compound concentration. By visual inspection of the dose-response curve, we determined the MIC of a compound as the compound concentrations that would result in 90% growth inhibition.
(§3) The MIC data was determined using methods disclosed in Example 1.

Experiment [2] has as its system M. abscessus subsp. bolletii CCUG 50184T. Description: MIC, anti-mycobacterial profiling. As to conditions: for MIC: mean of two experiments. The format is cell-based, Mycobacterium abscessus. As to the method: as §1, §2, §3
Another experiment relates to M. chimaera CCUG 50989T. Description: MIC, anti-mycobacterial profiling. The format is cell-based, Mycobacterium chimaera. Conditions: for MIC: mean of two experiments.
The next experiment has as its system M. szulgai ATCC 35799. Description: MIC, anti-mycobacterial profiling. In kind it is cell-based, Mycobacterium szulgai. Conditions: for MIC: mean of two experiments.
Experiment [3] relates to M. abscessus Bamboo. Description: Broth MBC90 (bMBC90). As to conditions: broth, 5 days. The format is cell-based, Mycobacterium abscessus. An excerpt: Broth MIC, broth MBC90 (bMBC90), and caseum surrogate MBC90 ([…]) of clinically used antibiotics and of novel ADP-ribosylation-resistant rifabutin analogs against M. abscessus Bamboo have been evaluated.
In the next experiment the test system is M. simiae ATCC 25275. Description: MIC, anti-mycobacterial profiling. In kind it is cell-based, Mycobacterium simiae. As to conditions: for MIC: mean of two experiments.
For another experiment, the system named is Δarr M. abscessus. Description: MIC assay, isogenic arr-deleted strain. In kind it is cell-based, Mycobacterium abscessus. As to conditions: arr-deleted strain; 90% growth inhibition. The procedure, abridged:
(§4)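 Two-fold, ten-point dilutions in 7H9 with 2% DMSO; mid-log culture diluted to OD600=0.1 (1×10^7 CFU/mL). Incubated 3 days at 37 °C, shaking 110 RPM; growth = Day 3 minus Day 0 OD600, expressed as percentage of drug-free growth and plotted against concentration. Two biological replicates.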

A further experiment concerns M. kansasii ATCC 12478. Description: MIC, anti-mycobacterial profiling. The format is cell-based, Mycobacterium kansasii. Conditions: for MIC: mean of two experiments.
The test system of another experiment is M. fortuitum ATCC 6841. Description: MIC, anti-mycobacterial profiling. In kind it is cell-based, Mycobacterium fortuitum. As to conditions: for MIC: mean of two experiments.
In a further experiment the test system is RFB-R1 M. abscessus. Description: microbe, parasite or virus in culture. In kind it is cell-based, Mycobacterium abscessus. Conditions: for MIC: Mycobacteroides abscessus, read-out: RFB-R1 M. abscessus MIC.
For another experiment, the system named is M. abscessus ATCC 19977. Description: MIC assay in 96-well plate format, wild-type strain. The format is cell-based, Mycobacterium abscessus. As to conditions: for MIC ratio: WT MIC/Δarr strain MIC. The procedure, abridged:
as §4

The test system of experiment [4] is M. abscessus Bamboo. Description: MIC assay, clinical isolate Bamboo. In kind it is cell-based, Mycobacterium abscessus. Conditions: for MIC: broth, M. abscessus Bamboo, Table 16, read-out: MIC.
The mark [5] stands for this setting: 90% inhibition of bacterial growth.
Setting [6] is: Mycobacterium szulgai, ATCC35799.
Setting [7] is: Mycobacteroides abscessus, 120 h.
Where [8] appears, read: Mycobacterium simiae, ATCC25275.
The mark [9] stands for this setting: Mycobacterium kansasii, ATCC12478.
The mark [10] stands for this setting: Mycolicibacterium fortuitum, ATCC6841.
Setting [11] is: Mycobacteroides abscessus, ATCC19977, M. abscessus ATCC 19977, 90% growth inhibition, read-out: WT Mab MIC.
[12] abbreviates: Mycobacteroides abscessus, ATCC19977, M. abscessus subsp. abscessus ATCC 19977, mean of two experiments, read-out: MIC.

≈ marks a conversion by molar mass, not a printed value. Read-outs that look alike come from different tables or passages of the source.

By MBC is commonly meant the lowest tested concentration that kills the bacteria rather than only halting them. Low readings indicate greater bactericidal potency, high ones weaker bactericidal potency. As to `CO[C@H]1/C=C/O[C@@]2(C)Oc3c(C)c(O)c4c(c3C2=O)C2=NC3(CCN(CC(C)C)CC3)NC2=C(NC(=O)/C(C)=C/C=C/[C@H](C)[C@H](O)[C@@H](C)[C@@H](O)[C@@H](C)[C@H](OC(=O)c2cccnc2)[C@@H]1C)C4=O` [5m, 25-O-(3-pyridinecarbonyl)-25-O-desacetyrifabutin], the “Fold improvement (RFB-5m vs RFB)” value in [1] amounted to 12; in [2] it was 31; in the experiment with M. chimaera CCUG 50989T it was 0.8; in the experiment on M. szulgai ATCC 35799, 1.7; in the experiment on M. simiae ATCC 25275 it was 95; with M. kansasii ATCC 12478, 1.0. Also, the results for the “Fold improvement (RFB-5m vs RFB)” value with M. fortuitum ATCC 6841 and in the experiment with M. abscessus ATCC 19977 (M. abscessus subsp. abscessus ATCC 19977) were 60 and 55, respectively. Further, the MIC came out at 0.05 µM (≈ 0.0455 µg/mL) in experiment [1]; 0.07 µM (≈ 0.0637 µg/mL) in [2]; 0.06 µM (≈ 0.0546 µg/mL) in the experiment on M. chimaera CCUG 50989T; 0.006 µM (≈ 0.00546 µg/mL) with M. szulgai ATCC 35799; 0.2 µM (≈ 0.182 µg/mL) against M. simiae ATCC 25275; 0.008 µM (≈ 0.00728 µg/mL) against M. kansasii ATCC 12478. In addition, the MIC in the experiment on M. fortuitum ATCC 6841 stood at 0.02 µM (≈ 0.0182 µg/mL); in the experiment with M. abscessus ATCC 19977 (M. abscessus ATCC 19977, 90% growth inhibition, read-out: WT Mab MIC) it was 0.024 µM (≈ 0.0218 µg/mL); with M. abscessus ATCC 19977 (M. abscessus subsp. abscessus ATCC 19977, mean of two experiments, read-out: MIC), 0.02 µM (≈ 0.0182 µg/mL); with M. abscessus ATCC 19977 (PK tables 2 and 8, read-out: WT MIC), 0.024 µM (≈ 0.0218 µg/mL); with M. abscessus Bamboo [4] it was 0.02 µM (≈ 0.0182 µg/mL). Moreover, the MBC in the experiment with M. abscessus Bamboo [3] amounted to 0.16 µM (≈ 0.146 µg/mL). Further, the “Δarr Mab MIC” value in the experiment with Δarr M. abscessus was found to be 0.026 µM. For the same compound, in the experiment with RFB-R1 M. abscessus (rpoB H447Y mutant, 90% inhibition), the “RFB-R1 M. abscessus MIC” value was over 100 µM. Further, the “Mab 19977 MIC” value with M. abscessus ATCC 19977 (setting [5]) worked out at 0.025 µM. Also, in the experiment with M. abscessus ATCC 19977, the MIC ratio was found to be 0.9. In addition, the “Mab Bamboo MIC” value in the experiment with M. abscessus Bamboo [4] (setting [5]) turned out to be 0.023 µM.
For `CC[C@H]1OC(=O)[C@H](C)[C@@H](O[C@H]2C[C@@](C)(OC)[C@@H](O)[C@H](C)O2)[C@H](C)[C@@H](O[C@@H]2O[C@H](C)C[C@H](N(C)C)[C@H]2O)[C@](C)(OC)C[C@@H](C)C(=O)[C@H](C)[C@@H](O)[C@]1(C)O` [clarithromycin, reference compound], the MIC in [1] (Mycobacteroides abscessus) amounted to 1.1 µM (≈ 0.823 µg/mL); in [2] (Mycobacteroides abscessus), 4.3 µM (≈ 3.22 µg/mL); in the experiment with M. chimaera CCUG 50989T (CCUG50989T) it was 0.8 µM (≈ 0.598 µg/mL); in the experiment on M. szulgai ATCC 35799 (setting [6]), 0.3 µM (≈ 0.224 µg/mL); against M. simiae ATCC 25275 (setting [8]), 12 µM (≈ 8.98 µg/mL); against M. kansasii ATCC 12478 (setting [9]) it was 0.3 µM (≈ 0.224 µg/mL). Also, the MIC is 3.2 µM (≈ 2.39 µg/mL) in the experiment on M. fortuitum ATCC 6841 (setting [10]); 2.1 µM (≈ 1.57 µg/mL) in the experiment with RFB-R1 M. abscessus; 1.45 µM (≈ 1.08 µg/mL) in the experiment with M. abscessus ATCC 19977 (setting [11]); 1.5 µM (≈ 1.12 µg/mL) in the experiment with M. abscessus ATCC 19977 (setting [12]); 0.4 µM (≈ 0.299 µg/mL) in the experiment on M. abscessus Bamboo [4] (Mycobacteroides abscessus). For the same compound, in the experiment on M. abscessus Bamboo [3] (setting [7]), the MBC amounted to 2 µM (≈ 1.5 µg/mL). In addition, the “Δarr Mab MIC” value with Δarr M. abscessus amounted to 1.8 µM. For the same compound, the MIC ratio in the experiment on M. abscessus ATCC 19977 is 0.7.
For the compound `CO[C@H]1/C=C/O[C@@]2(C)Oc3c(C)c(O)c4c(c3C2=O)C2=NC3(CCN(CC(C)C)CC3)NC2=C(NC(=O)/C(C)=C\C=C\[C@H](C)[C@H](O)[C@@H](C)[C@@H](O)[C@@H](C)[C@H](OC(C)=O)[C@@H]1C)C4=O` [rifabutin, reference compound], the MIC in [1] (Mycobacteroides abscessus) came out at 0.6 µM (≈ 0.508 µg/mL); in experiment [2] (Mycobacteroides abscessus) it was 2.2 µM (≈ 1.86 µg/mL); against M. chimaera CCUG 50989T (CCUG50989T) it was 0.05 µM (≈ 0.0424 µg/mL); in the experiment on M. szulgai ATCC 35799 (setting [6]), 0.01 µM (≈ 0.00847 µg/mL); against M. simiae ATCC 25275 (setting [8]) it was 19 µM (≈ 16.1 µg/mL); with M. kansasii ATCC 12478 (setting [9]), 0.008 µM (≈ 0.00678 µg/mL). Moreover, the MIC is 1.2 µM (≈ 1.02 µg/mL) against M. fortuitum ATCC 6841 (setting [10]); over 100 µM in the experiment on RFB-R1 M. abscessus; 1.15 µM (≈ 0.974 µg/mL) in the experiment on M. abscessus ATCC 19977 (setting [11]); 1.1 µM (≈ 0.932 µg/mL) with M. abscessus ATCC 19977 (setting [12]); 1.15 µM (≈ 0.974 µg/mL) in the experiment with M. abscessus ATCC 19977 (Mycobacteroides abscessus, ATCC19977, PK tables 2 and 8, read-out: WT MIC); 3 µM (≈ 2.54 µg/mL) with M. abscessus Bamboo [4] (Mycobacteroides abscessus). Also, in the experiment with M. abscessus Bamboo [3] (setting [7]), the MBC stood at 5 µM (≈ 4.24 µg/mL). Further, in the experiment with Δarr M. abscessus, the “Δarr Mab MIC” value amounted to 0.031 µM. For the same compound, in the experiment on M. abscessus ATCC 19977, the MIC ratio was determined as 39.3.
